Experimental data from ChEMBL document CHEMBL1909046, “DrugMatrix in vitro pharmacology data”.

Experiments:
[1] = target: Tyrosine-protein kinase Fyn (Homo sapiens, UniProt P06241); experiment: biochemical; type: cell-based, Insect cells; settings: insect cells;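 further: enzymatic inhibition of Fyn kinase activity measured with Poly(Glu:Tyr) as the phosphorylation substrate; in other assays of this panel Not Active means under 50% inhibition at 10 µM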
[2] = DRUGMATRIX: GABAA, Chloride Channel, TBOB radioligand binding (ligand: [3H] TBOB); type: cell membranes, Rattus norvegicus, Wistar, Cerebral cortex, Membrane; settings: Not Active = under 50% inhibition at 10 µM
[3] = target: T1, Neuropeptide Y receptor type 1 (Homo sapiens, UniProt P25929); type: cell membranes, Membrane; settings: sk-n-mc; further: in other assays of this panel Not Active means under 50% inhibition at 10 µM
T1 sequence (P25929 whole entry): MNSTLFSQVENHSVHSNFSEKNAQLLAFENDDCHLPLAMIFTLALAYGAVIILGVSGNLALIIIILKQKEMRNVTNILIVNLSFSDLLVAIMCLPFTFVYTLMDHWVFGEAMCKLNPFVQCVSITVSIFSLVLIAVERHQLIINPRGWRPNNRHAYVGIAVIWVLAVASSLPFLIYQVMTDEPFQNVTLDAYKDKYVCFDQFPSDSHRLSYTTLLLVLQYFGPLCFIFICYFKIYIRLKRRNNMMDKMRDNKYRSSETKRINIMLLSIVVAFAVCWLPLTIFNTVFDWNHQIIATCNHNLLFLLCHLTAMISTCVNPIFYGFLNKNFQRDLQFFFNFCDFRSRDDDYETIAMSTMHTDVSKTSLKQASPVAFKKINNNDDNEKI

Neutrophil elastase = target: T2, Neutrophil elastase (Homo sapiens, UniProt P08246); type: tissue-based;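 further: inhibition of neutrophil elastase enzyme activity, measured with a p-nitroanilide-linked peptide substrate; in other assays of this panel Not Active means under 50% inhibition at 10 µM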
T2 sequence (P08246 whole entry): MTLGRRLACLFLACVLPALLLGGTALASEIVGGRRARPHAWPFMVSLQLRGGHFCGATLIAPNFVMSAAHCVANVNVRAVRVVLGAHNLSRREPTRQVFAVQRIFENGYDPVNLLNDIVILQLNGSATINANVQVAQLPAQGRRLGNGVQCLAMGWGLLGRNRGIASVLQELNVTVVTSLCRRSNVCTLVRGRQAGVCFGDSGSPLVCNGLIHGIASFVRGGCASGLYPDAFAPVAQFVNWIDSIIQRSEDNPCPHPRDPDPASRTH

[4] = target: Receptor tyrosine-protein kinase erbB-2 (Homo sapiens, UniProt P04626); experiment: biochemical; type: cell-based, Insect cells;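 further: inhibition of HER2 kinase enzyme activity, measured with Poly(Glu:Tyr) as the phosphorylation substrate; in other assays of this panel Not Active means under 50% inhibition at 10 µM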
[5] = DRUGMATRIX: Phorbol Ester radioligand binding (ligand: [3H] PDBu); type: cell membranes, Mus musculus, ICR, Brain, Membrane; settings: Not Active = under 50% inhibition at 10 µM
[6] = DRUGMATRIX: GABAA, Muscimol, Central radioligand binding (ligand: [3H] Muscimol); type: cell membranes, Rattus norvegicus, Wistar, Brain, Membrane; settings: Not Active = under 50% inhibition at 10 µM
Cytochrome P450 2C19 = Cytochrome P450 2C19 (Homo sapiens, UniProt P33261); settings: bti-tn-5b1-4; further: in other assays of this panel Not Active means under 50% inhibition at 10 µM
Chain of Cytochrome P450 2C19 (P33261 whole entry): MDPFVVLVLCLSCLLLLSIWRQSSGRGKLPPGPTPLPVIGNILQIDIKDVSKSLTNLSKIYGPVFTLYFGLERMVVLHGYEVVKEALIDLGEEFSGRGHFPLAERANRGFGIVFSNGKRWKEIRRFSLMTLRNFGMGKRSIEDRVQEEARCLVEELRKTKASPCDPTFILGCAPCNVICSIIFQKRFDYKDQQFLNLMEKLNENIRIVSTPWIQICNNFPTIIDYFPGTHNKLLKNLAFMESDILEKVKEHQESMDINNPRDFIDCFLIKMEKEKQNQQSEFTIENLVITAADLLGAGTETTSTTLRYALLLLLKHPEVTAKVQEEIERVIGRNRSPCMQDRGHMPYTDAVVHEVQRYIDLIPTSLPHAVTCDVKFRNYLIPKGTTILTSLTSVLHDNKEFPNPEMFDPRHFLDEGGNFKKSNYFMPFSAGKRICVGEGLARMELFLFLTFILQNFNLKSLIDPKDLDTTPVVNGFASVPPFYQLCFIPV

Chain of Tyrosine-protein kinase Fyn (P06241 whole entry): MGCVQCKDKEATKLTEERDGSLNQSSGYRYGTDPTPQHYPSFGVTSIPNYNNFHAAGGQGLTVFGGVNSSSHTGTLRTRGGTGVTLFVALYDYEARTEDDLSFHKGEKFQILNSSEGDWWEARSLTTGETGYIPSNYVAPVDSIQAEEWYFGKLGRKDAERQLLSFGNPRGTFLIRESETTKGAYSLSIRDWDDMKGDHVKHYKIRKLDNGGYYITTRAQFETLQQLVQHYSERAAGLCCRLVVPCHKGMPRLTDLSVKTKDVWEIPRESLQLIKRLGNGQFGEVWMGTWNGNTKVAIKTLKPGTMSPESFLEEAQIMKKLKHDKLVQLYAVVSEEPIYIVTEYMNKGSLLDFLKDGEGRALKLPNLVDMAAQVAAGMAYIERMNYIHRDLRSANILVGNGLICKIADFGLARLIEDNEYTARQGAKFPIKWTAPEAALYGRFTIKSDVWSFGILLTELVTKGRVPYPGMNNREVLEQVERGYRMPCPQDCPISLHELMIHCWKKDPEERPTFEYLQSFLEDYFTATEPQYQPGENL

Row | Compound | IC50 [1] | IC50 [2] | Ki [2] | IC50 [3] | IC50 (Neutrophil elastase) | IC50 ([4]; insect cells) | IC50 [5] | Ki [5] | IC50 [6] | Ki [6] | IC50 (Cytochrome P450 2C19) | Ki (Cytochrome P450 2C19) | IC50 ([4]; read-out: IC50) [µM] | Ki [1] | Ki [3] | Ki (Neutrophil elastase) | Ki ([4]; insect cells)
1 | Nc1cc(N2CCCCC2)nc(N)[n+]1[O-] [MINOXIDIL] | Not Active | Not Active | Not Active | Not Active | Not Active | Not Active | Not Active | Not Active | Not Active | Not Active | Not Active | Not Active | – | – | – | – | –
2 | CO[C@H]1/C=C/O[C@@]2(C)Oc3c(C)c(O)c4c(O)c(c(/C=N/N5CCN(C6CCCC6)CC5)c(O)c4c3C2=O)NC(=O)/C(C)=C\C=C\[C@H](C)[C@H](O)[C@@H](C)[C@@H](O)[C@@H](C)[C@H](OC(C)=O)[C@@H]1C [RIFAPENTINE] | Not Active | Not Active | Not Active | Not Active | Not Active | Not Active | Not Active | Not Active | Not Active | Not Active | Not Active | Not Active | – | – | – | – | –
3 | CCCCOc1cc(CC2CNC(=O)N2)ccc1OC (stereo not drawn) [RO-201724] | Not Active | Not Active | Not Active | Not Active | Not Active | Not Active | Not Active | Not Active | Not Active | Not Active | Not Active | Not Active | – | – | – | – | –
4 | CC[C@@H](C(=O)[C@@H](C)[C@@H](O)[C@H](C)[C@@H]1O[C@@H]([C@@H](CC)C(=O)O)CC[C@@H]1C)[C@H]1O[C@]2(C=C[C@@H](O)[C@]3(CC[C@@](C)([C@H]4CC[C@](O)(CC)[C@H](C)O4)O3)O2)[C@H](C)C[C@@H]1C [SALINOMYCIN] | Not Active | Not Active | Not Active | Not Active | Not Active | Not Active | Not Active | Not Active | Not Active | Not Active | Not Active | Not Active | – | – | – | – | –
5 | O=C(Oc1ccccc1C(=O)O)c1ccccc1O [SALSALATE] | Not Active | Not Active | Not Active | Not Active | Not Active | Not Active | Not Active | Not Active | Not Active | Not Active | Not Active | Not Active | – | – | – | – | –
6 | O=C(O)c1cn(-c2ccc(F)cc2)c2cc(N3CCNCC3)c(F)cc2c1=O [SARAFLOXACIN] | Not Active | Not Active | Not Active | Not Active | Not Active | Not Active | Not Active | Not Active | Not Active | Not Active | Not Active | Not Active | – | – | – | – | –
7 | CC(C)NCC(O)c1ccc(NS(C)(=O)=O)cc1 (stereo not drawn) [SOTALOL] | Not Active | Not Active | Not Active | Not Active | Not Active | Not Active | Not Active | Not Active | Not Active | Not Active | Not Active | Not Active | – | – | – | – | –
8 | O.O.O.O.O.O.[Cl-].[Cl-].[Sr+2] [STRONTIUM CHLORIDE HEXAHYDRATE] | Not Active | Not Active | Not Active | Not Active | Not Active | Not Active | Not Active | Not Active | Not Active | Not Active | Not Active | Not Active | – | – | – | – | –
9 | O=C1C(CC[S+]([O-])c2ccccc2)C(=O)N(c2ccccc2)N1c1ccccc1 (stereo not drawn) [SULFINPYRAZONE] | Not Active | Not Active | Not Active | Not Active | Not Active | Not Active | Not Active | Not Active | Not Active | Not Active | Not Active | Not Active | – | – | – | – | –
10 | NC(=O)N1C(=O)/C(=C(\O)c2cccs2)c2cc(Cl)ccc21 [TENIDAP] | Not Active | Not Active | Not Active | Not Active | Not Active | Not Active | Not Active | Not Active | Not Active | Not Active | Not Active | Not Active | – | – | – | – | –
11 | COc1cc2nc(N3CCN(C(=O)C4CCCO4)CC3)nc(N)c2cc1OC (stereo not drawn) [TERAZOSIN] | Not Active | Not Active | Not Active | Not Active | Not Active | Not Active | Not Active | Not Active | Not Active | Not Active | Not Active | Not Active | – | – | – | – | –
12 | CN(C/C=C/C#CC(C)(C)C)Cc1cccc2ccccc12 [TERBINAFINE] | Not Active | Not Active | Not Active | Not Active | Not Active | Not Active | Not Active | Not Active | Not Active | Not Active | Not Active | Not Active | – | – | – | – | –
13 | Cn1c(=O)c2nc[nH]c2n(C)c1=O.O [THEOPHYLLINE] | Not Active | Not Active | Not Active | Not Active | Not Active | Not Active | Not Active | Not Active | Not Active | Not Active | Not Active | Not Active | – | – | – | – | –
14 | CS(=O)(=O)c1ccc([C@@H](O)[C@@H](CO)NC(=O)C(Cl)Cl)cc1 [THIAMPHENICOL] | Not Active | Not Active | Not Active | Not Active | Not Active | Not Active | Not Active | Not Active | Not Active | Not Active | Not Active | Not Active | – | – | – | – | –
15 | CCN(CC)CCNC(=O)c1cc(S(C)(=O)=O)ccc1OC [TIAPRIDE] | Not Active | Not Active | Not Active | Not Active | Not Active | Not Active | Not Active | Not Active | Not Active | Not Active | Not Active | Not Active | – | – | – | – | –
16 | NC1CCN(c2nc3c(cc2F)c(=O)c(C(=O)O)cn3-c2ccc(F)cc2F)C1 (stereo not drawn) [TOSUFLOXACIN] | Not Active | Not Active | Not Active | Not Active | Not Active | Not Active | Not Active | Not Active | Not Active | Not Active | Not Active | Not Active | – | – | – | – | –
17 | O=C(Nc1ccc(Br)cc1)c1cc(Br)cc(Br)c1O [TRIBROMSALAN] | Not Active | Not Active | Not Active | Not Active | Not Active | – | Not Active | Not Active | Not Active | Not Active | Not Active | Not Active | 5.97 | – | – | – | –
18 | CC(c1cc2ccccc2s1)N(O)C(N)=O (stereo not drawn) [ZILEUTON] | Not Active | Not Active | Not Active | Not Active | Not Active | Not Active | Not Active | Not Active | Not Active | Not Active | Not Active | Not Active | – | – | – | – | –
19 | MANGANESE CHLORIDE ANHYDROUS | Not Active | Not Active | Not Active | Not Active | Not Active | Not Active | Not Active | Not Active | Not Active | Not Active | Not Active | Not Active | – | Not Active | Not Active | Not Active | Not Active
20 | SODIUM ORTHOVANAD | Not Active | Not Active | Not Active | Not Active | Not Active | Not Active | Not Active | Not Active | Not Active | Not Active | Not Active | Not Active | – | Not Active | Not Active | Not Active | Not Active
